Experimental data as given in PubChem BioAssay AID270 (DTP/NCI, 2004).
Several values for one entry are separate records, joined by “and”; a condition that tells them apart may be missing. Equal values may be shown once. Inconclusive results are not listed.

System: BDF1 mice, s.c. Lewis lung carcinoma, T/C %
Experiment: NCI In Vivo Anticancer Drug Screen. Data for tumor model Lewis Lung Carcinoma (subcutaneous) in B6D2F1 (BDF1) mice
Summary of the method: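 First, mice carry a transplantable tumor. Next, groups receive either compound or vehicle. Finally, survival or tumor dimensions in the dosed animals are divided by the corresponding control figure.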

[1] = endpoint: median survival time, dose: 0.12 mg/kg/injection, schedule: Q01DX009 (ip), vehicle: saline, higher = longer survival
[2] = endpoint: median survival time, dose: 0.25 mg/kg/injection, schedule: Q01DX009 (ip), vehicle: saline, higher = longer survival
[3] = endpoint: median survival time, dose: 2.0 mg/kg/injection, schedule: Q01DX009 (ip), vehicle: saline, higher = longer survival
[4] = endpoint: mean tumor weight, dose: 25.0 mg/kg/injection, schedule: Q01DX011 (ip), vehicle: saline, higher = larger tumour
[5] = endpoint: mean tumor weight, dose: 50.0 mg/kg/injection, schedule: Q01DX011 (ip), vehicle: saline, higher = larger tumour
[6] = endpoint: mean tumor weight, dose: 100.0 mg/kg/injection, schedule: Q01DX011 (ip), vehicle: saline, higher = larger tumour
[7] = endpoint: median survival time, dose: 12.5 mg/kg/injection, schedule: Q01DX009 (ip), vehicle: Klucel (hydroxypropylcellulose) (HPC), higher = longer survival

`CCCCCCCCCCCC[N+](C)(C)Cc1ccccc1` was tested, and the T/C [1] was 111 % of control, the T/C [2] was 94 % of control and the T/C (endpoint: median survival time, dose: 1.0 mg/kg/injection, schedule: Q01DX009 (ip), vehicle: saline, higher = longer survival) was 97 % of control. The T/C [3] was 97 % of control, the T/C (endpoint: median survival time, dose: 4.0 mg/kg/injection, schedule: Q01DX009 (ip), vehicle: saline, higher = longer survival) was 91 % of control and the T/C (endpoint: median survival time, dose: 125.0 micrograms/kg/injection, schedule: Q01DX009 (ip), vehicle: saline, higher = longer survival) was 107 % of control. For the same molecule, the T/C (endpoint: median survival time, dose: 250.0 micrograms/kg/injection, schedule: Q01DX009 (ip), vehicle: saline, higher = longer survival) was 93 % of control, the T/C (endpoint: median survival time, dose: 1000.0 micrograms/kg/injection, schedule: Q01DX009 (ip), vehicle: saline, higher = longer survival) was 103 % of control and the T/C (endpoint: median survival time, dose: 2000.0 micrograms/kg/injection, schedule: Q01DX009 (ip), vehicle: saline, higher = longer survival) was 109 % of control. The T/C (endpoint: median survival time, dose: 4000.0 micrograms/kg/injection, schedule: Q01DX009 (ip), vehicle: saline, higher = longer survival) was 107 % of control and the T/C (endpoint: median survival time, dose: 8000.0 micrograms/kg/injection, schedule: Q01DX009 (ip), vehicle: saline, higher = longer survival) was 96 % of control.

In the case of `CCC1=C(c2cc(Cl)c3ccccc3c2OCC(=O)O)OC(CC)(C(=O)c2cc(Cl)c3ccccc3c2OCC(=O)O)CC1` (stereo unspecified), the T/C (endpoint: mean tumor weight, dose: 2.3 mg/kg/injection, schedule: Q01DX011 (ip), vehicle: carboxymethylcellulose (CMC), higher = larger tumour) is reported as 82 % of control and the T/C (endpoint: mean tumor weight, dose: 3.5 mg/kg/injection, schedule: Q01DX011 (ip), vehicle: carboxymethylcellulose (CMC), higher = larger tumour) is reported as 76 % of control.

In the case of `ClCC[N-]CC[N-]CCCl.ClCC[N-]CC[N-]CCCl.[O-][Cl+3]([O-])([O-])O.[Zn+2]`, the T/C (endpoint: median survival time, dose: 5.0 mg/kg/injection, schedule: Q01DX009 (ip), vehicle: saline with Tween-80, higher = longer survival) is reported as 101 % of control, the T/C (endpoint: median survival time, dose: 10.0 mg/kg/injection, schedule: Q01DX009 (ip), vehicle: saline with Tween-80, higher = longer survival) is reported as 101 % of control and the T/C (endpoint: median survival time, dose: 20.0 mg/kg/injection, schedule: Q01DX009 (ip), vehicle: saline with Tween-80, higher = longer survival) is reported as 105 % of control. For the same molecule, the T/C (endpoint: median survival time, dose: 40.0 mg/kg/injection, schedule: Q01DX009 (ip), vehicle: saline with Tween-80, higher = longer survival) was 99 % of control.

`Nc1ccc2nc3ccc(N)cc3[n+](-c3ccccc3)c2c1` was tested, and the T/C [3] was 88 % of control.

For `c1ccc2ncccc2c1`, the T/C [4] was 81 % of control and the T/C [5] was 49 % of control.

`OC1c2cc(Cl)ccc2-c2c(Cl)cc(Cl)cc21` (stereo unspecified) was tested, and the T/C (endpoint: mean tumor weight, dose: 63.0 mg/kg/injection, schedule: Q01DX011 (ip), vehicle: carboxymethylcellulose (CMC), higher = larger tumour) was 64 % of control, the T/C (endpoint: mean tumor weight, dose: 125.0 mg/kg/injection, schedule: Q01DX011 (ip), vehicle: carboxymethylcellulose (CMC), higher = larger tumour) was 58 % of control and the T/C (endpoint: mean tumor weight, dose: 190.0 mg/kg/injection, schedule: Q01DX011 (ip), vehicle: carboxymethylcellulose (CMC), higher = larger tumour) was 61 % of control.

In the case of `COc1cc(OC)c(-c2cc(=O)c3c(OC)c(OC)c(OC)c(OC)c3o2)cc1OC`, the T/C [5] is reported as 73 % of control, the T/C [6] is reported as 70 % of control and the T/C (endpoint: mean tumor weight, dose: 200.0 mg/kg/injection, schedule: Q01DX011 (ip), vehicle: saline, higher = larger tumour) is reported as 97 % of control. The T/C (endpoint: mean tumor weight, dose: 400.0 mg/kg/injection, schedule: Q01DX011 (ip), vehicle: saline, higher = larger tumour) was 51 % of control.

With `C/C=C1\CNC2Cc3c([nH]c4ccccc34)C(=O)CC1C2C(=O)OC` (stereo unspecified) the T/C [4] was 88 % of control, the T/C [5] was 97 % of control and the T/C [6] was 84 % of control.

For `O=NN(CCF)C(=O)NC1CCS(=O)(=O)CC1`, the T/C (endpoint: median survival time, dose: 9.0 mg/kg/injection, schedule: Q01DX001 (ip), vehicle: other, higher = longer survival) was 120 % of control, the T/C (endpoint: median survival time, dose: 14.0 mg/kg/injection, schedule: Q01DX001 (ip), vehicle: other, higher = longer survival) was 109 % of control and the T/C (endpoint: median survival time, dose: 21.0 mg/kg/injection, schedule: Q01DX001 (ip), vehicle: other, higher = longer survival) was 121 % of control. The T/C (endpoint: median survival time, dose: 32.0 mg/kg/injection, schedule: Q01DX001 (ip), vehicle: other, higher = longer survival) was 107 % of control, the T/C (endpoint: median tumor weight (est.), dose: 11.0 mg/kg/injection, schedule: Q01DX001 (ip), vehicle: other, higher = larger tumour) was 65 % of control and the T/C (endpoint: median tumor weight (est.), dose: 21.0 mg/kg/injection, schedule: Q01DX001 (ip), vehicle: other, higher = larger tumour) was 65 % of control. The T/C (endpoint: median tumor weight (est.), dose: 32.0 mg/kg/injection, schedule: Q01DX001 (ip), vehicle: other, higher = larger tumour) was 10 % of control.

With `COc1cc(NS(C)(=O)=O)ccc1Nc1c2ccc(Cl)cc2nc2c(OC)cccc12` the T/C (endpoint: median survival time, dose: 2.3 mg/kg/injection, schedule: Q01DX009 (ip), vehicle: other, higher = longer survival) was 118 % of control.

In the case of `O=[N+]([O-])c1ccc(/C=N/c2ncc(Br)s2)o1`, the T/C (endpoint: median survival time, dose: 6.25 mg/kg/injection, schedule: Q01DX009 (ip), vehicle: Klucel (hydroxypropylcellulose) (HPC), higher = longer survival) is reported as 89 % of control and the T/C [7] is reported as 109 % of control.

`COC1C(O)=C2C(=O)OC(C)(O)/C=C/C=C\C=C/C=C/C(c3ccccc3)NC(=O)/C=C/C=C/C=C/C=C/C2(C)C1O` (stereo unspecified) was tested, and the T/C [1] was 92 % of control, the T/C [2] was 95 % of control and the T/C (endpoint: median survival time, dose: 0.5 mg/kg/injection, schedule: Q01DX009 (ip), vehicle: saline, higher = longer survival) was 100 % of control. The T/C (endpoint: median survival time, dose: 0.62 mg/kg/injection, schedule: Q01DX009 (ip), vehicle: saline, higher = longer survival) was 113 % of control and the T/C (endpoint: median survival time, dose: 2.5 mg/kg/injection, schedule: Q01DX009 (ip), vehicle: saline, higher = longer survival) was 91 % of control.

`CC(/C=N/N=C(N)N)=N\N=C(N)N` was tested, and the T/C (endpoint: mean tumor weight, dose: 15.0 mg/kg/injection, schedule: Q01DX011 (ip), vehicle: saline, higher = larger tumour) was 119 % of control, the T/C (endpoint: mean tumor weight, dose: 30.0 mg/kg/injection, schedule: Q01DX011 (ip), vehicle: saline, higher = larger tumour) was 88 % of control and the T/C (endpoint: mean tumor weight, dose: 60.0 mg/kg/injection, schedule: Q01DX011 (ip), vehicle: saline, higher = larger tumour) was 46 % of control.

In the case of `O=CN(O)CC(=O)O`, the T/C (endpoint: median survival time, dose: 3000.0 mg/kg/injection, schedule: Q01DX001 (ip), vehicle: saline, higher = longer survival) is reported as 115 % of control.

For `O=C1C(=O)c2ccccc2C(O)=C1CC=C(Cl)Cl`, the T/C (endpoint: mean tumor weight, dose: 12.5 mg/kg/injection, schedule: Q01DX011 (ip), vehicle: carboxymethylcellulose (CMC), higher = larger tumour) was 88 % of control, the T/C (endpoint: mean tumor weight, dose: 25.0 mg/kg/injection, schedule: Q01DX011 (ip), vehicle: carboxymethylcellulose (CMC), higher = larger tumour) was 76 % of control and the T/C (endpoint: mean tumor weight, dose: 50.0 mg/kg/injection, schedule: Q01DX011 (ip), vehicle: carboxymethylcellulose (CMC), higher = larger tumour) was 90 % of control. For the same molecule, the T/C (endpoint: mean tumor weight, dose: 50.0 mg/kg/injection, schedule: Q01DX011 (oral), vehicle: carboxymethylcellulose (CMC), higher = larger tumour) was 84 % of control, the T/C [7] was 89 % of control and 100 % of control and 106 % of control and the T/C (endpoint: median survival time, dose: 25.0 mg/kg/injection, schedule: Q01DX009 (ip), vehicle: Klucel (hydroxypropylcellulose) (HPC), higher = longer survival) was 86 % of control and 94 % of control and 110 % of control. The T/C (endpoint: median survival time, dose: 34.0 mg/kg/injection, schedule: Q01DX009 (ip), vehicle: water, higher = longer survival) was 113 % of control, the T/C (endpoint: median survival time, dose: 50.0 mg/kg/injection, schedule: Q01DX009 (ip), vehicle: Klucel (hydroxypropylcellulose) (HPC), higher = longer survival) was 103 % of control and 110 % of control and the T/C (endpoint: median survival time, dose: 50.0 mg/kg/injection, schedule: Q01DX009 (ip), vehicle: water, higher = longer survival) was 110 % of control. For the same molecule, the T/C (endpoint: median survival time, dose: 100.0 mg/kg/injection, schedule: Q01DX009 (ip), vehicle: Klucel (hydroxypropylcellulose) (HPC), higher = longer survival) was 117 % of control, the T/C (endpoint: median tumor weight (est.), dose: 12.5 mg/kg/injection, schedule: Q01DX009 (ip), vehicle: Klucel (hydroxypropylcellulose) (HPC), higher = larger tumour) was 93 % of control and 99 % of control and the T/C (endpoint: median tumor weight (est.), dose: 25.0 mg/kg/injection, schedule: Q01DX009 (ip), vehicle: Klucel (hydroxypropylcellulose) (HPC), higher = larger tumour) was 78 % of control and 86 % of control. For the same molecule, the T/C (endpoint: median tumor weight (est.), dose: 50.0 mg/kg/injection, schedule: Q01DX009 (ip), vehicle: Klucel (hydroxypropylcellulose) (HPC), higher = larger tumour) was 87 % of control and the T/C (endpoint: median tumor weight (est.), dose: 100.0 mg/kg/injection, schedule: Q01DX009 (ip), vehicle: Klucel (hydroxypropylcellulose) (HPC), higher = larger tumour) was 70 % of control.

With `[N-]=[N+]=CC(=O)NCC(=O)NN` the T/C (endpoint: mean tumor weight, dose: 125.0 mg/kg/injection, schedule: Q01DX011 (ip), vehicle: water, higher = larger tumour) was 95 % of control, the T/C (endpoint: mean tumor weight, dose: 250.0 mg/kg/injection, schedule: Q01DX011 (ip), vehicle: water, higher = larger tumour) was 66 % of control and the T/C (endpoint: mean tumor weight, dose: 500.0 mg/kg/injection, schedule: Q01DX011 (ip), vehicle: water, higher = larger tumour) was 40 % of control.

With `Cn1cnc([N+](=O)[O-])c1Sc1nc(N)nc2c1ncn2C1OC(CO)C(O)C1O` (stereo unspecified) the T/C (endpoint: mean tumor weight, dose: 1.0 mg/kg/injection, schedule: Q01DX011 (ip), vehicle: other, higher = larger tumour) was 76 % of control, the T/C (endpoint: mean tumor weight, dose: 2.0 mg/kg/injection, schedule: Q01DX011 (ip), vehicle: other, higher = larger tumour) was 64 % of control and the T/C (endpoint: mean tumor weight, dose: 4.0 mg/kg/injection, schedule: Q01DX011 (ip), vehicle: other, higher = larger tumour) was 42 % of control. For the same molecule, the T/C (endpoint: mean tumor weight, dose: 8.0 mg/kg/injection, schedule: Q01DX011 (ip), vehicle: other, higher = larger tumour) was 18 % of control and 38 % of control and the T/C (endpoint: mean tumor weight, dose: 16.0 mg/kg/injection, schedule: Q01DX011 (ip), vehicle: other, higher = larger tumour) was 37 % of control.
